According to PMC5224920, “Assessing the mechanism and therapeutic potential of modulators of the human Mediator complex-associated protein kinases” (eLife, 2016):

Test system: 12 single or co-culture in vitro tissue models of primary cells
Assay: Culture/co-culture cell model panel, extracellular biomarkers (DiscoveRx); for CCL2/MCP-1: reference of the scale not given here; for CD38: reference of the scale not given here; for CD40: reference of the scale not given here; for CD69: reference of the scale not given here; for CXCL8/IL-8: reference of the scale not given here; for CXCL9/MIG: reference of the scale not given here; for IL-1alpha: reference of the scale not given here; for M-CSF: reference of the scale not given here; for PBMC Cytotoxicity: reference of the scale not given here
Type: cell-based, human
[1] = /Mphg Huvec+macrophages, 1.00E4 nM
[2] = /Mphg Huvec+macrophages, 1.11E3 nM
[3] = /Mphg Huvec+macrophages, 1.23E2 nM
[4] = /Mphg Huvec+macrophages, 1.37E1 nM
[5] = /Mphg Huvec+macrophages, 3.33E3 nM
[6] = /Mphg Huvec+macrophages, 3.70E2 nM
[7] = /Mphg Huvec+macrophages, 4.12E1 nM
[8] = /Mphg Huvec+macrophages, 4.57E0 nM

Cc1n[nH]c2ncc(C(=O)N3CCC[C@H]3c3ccc(Cl)cc3)cc12 [CMPD4] was tested, and the “Collagen I” value (/HDFNo, 4.57E0 nM) was -0.029, the “Collagen III” value (/HDFNo, 4.57E0 nM) was 0.064 and the CCL2/MCP-1 [1] was -0.014. It also gave a CCL3/MIP-1alpha [1] of 0.020, a CD40 [1] of 0.064 and a CD62E/E-Selectin [1] of -0.080. The CD69 [1] was 0.239, the CD106/VCAM-1 [1] was 0.005 and the CXCL8/IL-8 [1] was 0.133. The IL-1alpha [1] was -0.065, the M-CSF [1] was 0.054 and the SRB [1] was -0.016. The SRB-Mphg [1] was 0.00054, the sIL-10 [1] was -0.061 and the CCL2/MCP-1 [2] was -0.111. For the same compound, the CCL3/MIP-1alpha [2] was -0.011, the CD40 [2] was 0.027 and the CD62E/E-Selectin [2] was -0.087. It also gave a CD69 [2] of 0.187, a CD106/VCAM-1 [2] of -0.0013 and a CXCL8/IL-8 [2] of 0.008. It also gave an IL-1alpha [2] of -0.048, a M-CSF [2] of -0.024 and an SRB [2] of -0.010. The SRB-Mphg [2] was -0.020, the sIL-10 [2] was -0.122 and the CCL2/MCP-1 [3] was -0.109. For the same compound, the CCL3/MIP-1alpha [3] was 0.015, the CD40 [3] was -0.002 and the CD62E/E-Selectin [3] was -0.108. The CD69 [3] was 0.181, the CD106/VCAM-1 [3] was 0.017 and the CXCL8/IL-8 [3] was 0.014. The IL-1alpha [3] was -0.049, the M-CSF [3] was -0.028 and the SRB [3] was -0.00948. For the same compound, the SRB-Mphg [3] was 0.00118, the sIL-10 [3] was -0.100 and the CCL2/MCP-1 [4] was -0.054. It also gave a CCL3/MIP-1alpha [4] of 0.000182, a CD40 [4] of -0.054 and a CD62E/E-Selectin [4] of -0.144. For the same compound, the CD69 [4] was 0.083, the CD106/VCAM-1 [4] was 0.0075 and the CXCL8/IL-8 [4] was 0.000538. For the same compound, the IL-1alpha [4] was -0.006, the M-CSF [4] was -0.041 and the SRB [4] was -0.007. The SRB-Mphg [4] was 0.004, the sIL-10 [4] was 0.023 and the CCL2/MCP-1 [5] was -0.091. The CCL3/MIP-1alpha [5] was -9.82e-5, the CD40 [5] was 0.039 and the CD62E/E-Selectin [5] was -0.094. For the same compound, the CD69 [5] was 0.200, the CD106/VCAM-1 [5] was 0.025 and the CXCL8/IL-8 [5] was 0.043. For the same compound, the IL-1alpha [5] was -0.044, the M-CSF [5] was -0.021 and the SRB [5] was -0.013. It also gave an SRB-Mphg [5] of 0.00473, a sIL-10 [5] of -0.159 and a CCL2/MCP-1 [6] of -0.110. For the same compound, the CCL3/MIP-1alpha [6] was -0.009, the CD40 [6] was -0.020 and the CD62E/E-Selectin [6] was -0.094. For the same compound, the CD69 [6] was 0.185, the CD106/VCAM-1 [6] was 0.027 and the CXCL8/IL-8 [6] was 0.00143. It also gave an IL-1alpha [6] of -0.030, a M-CSF [6] of -0.017 and an SRB [6] of -0.005. It also gave an SRB-Mphg [6] of -0.005, a sIL-10 [6] of -0.159 and a CCL2/MCP-1 [7] of -0.089. For the same compound, the CCL3/MIP-1alpha [7] was 0.015, the CD40 [7] was -0.055 and the CD62E/E-Selectin [7] was -0.120. For the same compound, the CD69 [7] was 0.131, the CD106/VCAM-1 [7] was -0.013 and the CXCL8/IL-8 [7] was 0.037. The IL-1alpha [7] was -0.015, the M-CSF [7] was -0.025 and the SRB [7] was -0.00546. The SRB-Mphg [7] was 0.005, the sIL-10 [7] was -0.021 and the CCL2/MCP-1 [8] was -0.005. The CCL3/MIP-1alpha [8] was -0.00218, the CD40 [8] was -0.087 and the CD62E/E-Selectin [8] was -0.111. The CD69 [8] was 0.012, the CD106/VCAM-1 [8] was 0.00354 and the CXCL8/IL-8 [8] was -0.024. It also gave an IL-1alpha [8] of 0.018, a M-CSF [8] of -0.010 and an SRB [8] of 0.001. It also gave an SRB-Mphg [8] of 0.011, a sIL-10 [8] of 0.038 and a CCL2/MCP-1 (/TH2, 1.00E4 nM) of -0.115. The CCL26/Eotaxin-3 (/TH2, 1.00E4 nM) was -0.131, the CD38 (/TH2, 1.00E4 nM) was -0.035 and the CD40 (/TH2, 1.00E4 nM) was -0.240. The CD62E/E-Selectin (/TH2, 1.00E4 nM) was 0.049, the CD62P/P-selectin (/TH2, 1.00E4 nM) was -0.00467 and the CD69 (/TH2, 1.00E4 nM) was -0.006. The CD87/uPAR (/TH2, 1.00E4 nM) was -0.174, the CD106/VCAM-1 (/TH2, 1.00E4 nM) was -0.004 and the CXCL8/IL-8 (/TH2, 1.00E4 nM) was -0.049. For the same compound, the CXCL9/MIG (/TH2, 1.00E4 nM) was -0.021, the “Collagen IV” value (/TH2, 1.00E4 nM) was 0.028 and the “PBMC Cytotoxicity” value (/TH2, 1.00E4 nM) was -0.00277. It also gave an SRB (/TH2, 1.00E4 nM) of -0.174, a sIL-17A (/TH2, 1.00E4 nM) of 0.175 and a sIL-17F (/TH2, 1.00E4 nM) of 0.137. The CCL2/MCP-1 (/TH2, 1.11E3 nM) was -0.084, the CCL26/Eotaxin-3 (/TH2, 1.11E3 nM) was -0.167 and the CD38 (/TH2, 1.11E3 nM) was -0.006. It also gave a CD40 (/TH2, 1.11E3 nM) of -0.166, a CD62E/E-Selectin (/TH2, 1.11E3 nM) of 0.083 and a CD62P/P-selectin (/TH2, 1.11E3 nM) of -0.044. For the same compound, the CD69 (/TH2, 1.11E3 nM) was 0.041, the CD87/uPAR (/TH2, 1.11E3 nM) was -0.190 and the CD106/VCAM-1 (/TH2, 1.11E3 nM) was 0.034. The CXCL8/IL-8 (/TH2, 1.11E3 nM) was -0.084, the CXCL9/MIG (/TH2, 1.11E3 nM) was -0.034 and the “Collagen IV” value (/TH2, 1.11E3 nM) was -0.00538. For the same compound, the “PBMC Cytotoxicity” value (/TH2, 1.11E3 nM) was -0.052, the SRB (/TH2, 1.11E3 nM) was -0.084 and the sIL-17A (/TH2, 1.11E3 nM) was 0.045. For the same compound, the sIL-17F (/TH2, 1.11E3 nM) was 0.003, the CCL2/MCP-1 (/TH2, 1.23E2 nM) was -0.100 and the CCL26/Eotaxin-3 (/TH2, 1.23E2 nM) was -0.152. For the same compound, the CD38 (/TH2, 1.23E2 nM) was -0.00143, the CD40 (/TH2, 1.23E2 nM) was -0.162 and the CD62E/E-Selectin (/TH2, 1.23E2 nM) was 0.078. For the same compound, the CD62P/P-selectin (/TH2, 1.23E2 nM) was -0.060, the CD69 (/TH2, 1.23E2 nM) was 0.046 and the CD87/uPAR (/TH2, 1.23E2 nM) was -0.227. The CD106/VCAM-1 (/TH2, 1.23E2 nM) was 0.025, the CXCL8/IL-8 (/TH2, 1.23E2 nM) was -0.055 and the CXCL9/MIG (/TH2, 1.23E2 nM) was -0.030. The “Collagen IV” value (/TH2, 1.23E2 nM) was -0.013, the “PBMC Cytotoxicity” value (/TH2, 1.23E2 nM) was 0.007 and the SRB (/TH2, 1.23E2 nM) was -0.061. For the same compound, the sIL-17A (/TH2, 1.23E2 nM) was 0.043, the sIL-17F (/TH2, 1.23E2 nM) was 0.061 and the CCL2/MCP-1 (/TH2, 1.37E1 nM) was -0.029. The CCL26/Eotaxin-3 (/TH2, 1.37E1 nM) was -0.152, the CD38 (/TH2, 1.37E1 nM) was 0.015 and the CD40 (/TH2, 1.37E1 nM) was -0.156. For the same compound, the CD62E/E-Selectin (/TH2, 1.37E1 nM) was 0.024, the CD62P/P-selectin (/TH2, 1.37E1 nM) was -0.040 and the CD69 (/TH2, 1.37E1 nM) was 0.016. The CD87/uPAR (/TH2, 1.37E1 nM) was -0.193, the CD106/VCAM-1 (/TH2, 1.37E1 nM) was 0.020 and the CXCL8/IL-8 (/TH2, 1.37E1 nM) was -0.050. For the same compound, the CXCL9/MIG (/TH2, 1.37E1 nM) was 0.013, the “Collagen IV” value (/TH2, 1.37E1 nM) was 0.018 and the “PBMC Cytotoxicity” value (/TH2, 1.37E1 nM) was -0.060. The SRB (/TH2, 1.37E1 nM) was -0.037, the sIL-17A (/TH2, 1.37E1 nM) was -0.008 and the sIL-17F (/TH2, 1.37E1 nM) was 0.096. The CCL2/MCP-1 (/TH2, 3.33E3 nM) was -0.125.
